Data published in ChEMBL document CHEMBL4038345, “Design, Synthesis, and Biological Evaluation of Novel Selenium-Containing Isocombretastatins and Phenstatins as Antitumor Agents” (J Med Chem, 2017).
Active and inactive are the calls of the source. No cut-off for these calls is given here.

How the values were obtained:
[1] = system: MDA-MB-231; assay: Antiproliferative activity against human MDA-MB-231 cells after 48 hrs by MTT assay; details: MDA-MB-231, 48 h
[2] = system: HepG2; assay: cells; details: Homo sapiens, HepG2, 48 h
[3] = system: RKO; assay: Antiproliferative activity against human RKO cells after 48 hrs by MTT assay
[4] = system: LoVo; assay: Antiproliferative activity against human LoVo cells after 48 hrs by MTT assay
[5] = system: A549; assay: cells; details: Homo sapiens, A549, 48 h
[6] = system: A549; assay: Antitumor activity against human A549 cells xenografted in BALB/c nude mouse assessed as tumor growth inhibition at 30 mg/kg, ip; format: functional; details: read-out: TGI
[7] = Metabolic stability in Sprague-Dawley rat liver microsomes assessed as compound remaining after 30 mins in presence of NADPH by UV-based HPLC-MS/MS analysis; format: ADME, microsome; details: read-out: Stability
[8] = Metabolic stability in Sprague-Dawley rat liver microsomes assessed as compound remaining after 90 mins in presence of NADPH by UV-based HPLC-MS/MS analysis; format: ADME, microsome; details: read-out: Stability
[9] = system: Liver; assay: (§1) Metabolic stability in Sprague-Dawley rat liver microsomes assessed as compound remaining after 150 mins in presence of NADPH by UV-based HPLC-MS/MS analysis; format: ADME, microsome; details: microsomes, 2.5 h
[10] = Metabolic stability in Sprague-Dawley rat liver microsomes assessed as compound remaining after 60 mins in presence of NADPH by UV-based HPLC-MS/MS analysis; format: ADME, microsome; details: read-out: Stability
[11] = Metabolic stability in Sprague-Dawley rat liver microsomes assessed as compound remaining after 120 mins in presence of NADPH by UV-based HPLC-MS/MS analysis; format: ADME, microsome; details: read-out: Stability
[12] = system: Mus musculus; assay: Toxicity in BALB/c nude mouse xenografted with human A549 cells assessed as change in body weight at 30 mg/kg, ip; format: organism-based; details: in vivo
[13] = system: HeLa; assay: cells; details: Homo sapiens, 48 h
[14] = Resistance index, ratio of IC50 for human A549/CDDP cells to IC50 for human A549 cells; format: functional
[15] = system: HCT-116; assay: cells; details: Homo sapiens, HCT-116, 48 h
[16] = system: MCF7; assay: cells; details: Homo sapiens, MCF7, 48 h
[17] = Resistance index, ratio of IC50 for human HepG2/DOX cells to IC50 for human HepG2 cells; format: functional
[18] = system: MGC-803; assay: Antiproliferative activity against human MGC803 cells after 48 hrs by MTT assay; details: MGC-803, 48 h
[19] = system: A2780; assay: cells; details: Homo sapiens, A2780, 48 h
Description: Antiproliferative activity against human A2780 cells after 48 hrs by MTT assay

[20] = Inhibition of porcine brain tubulin polymerization measured every 60 seconds for 90 mins by DAPI staining-based fluorescence assay; parameters: species or system Sus scrofa
[21] = system: A549/CDDP; assay: Antiproliferative activity against human A549/CDDP cells after 48 hrs by MTT assay; format: functional, cell-based
[22] = system: A549; assay: Induction of microtubule disruption in human A549 cells at 5 to 10 nM after 8 to 24 hrs by Hoechst 33342 staining-based laser scanning confocal immunofluorescence microscopic analysis; format: cell-based
[23] = Half life in Sprague-Dawley rat by UV-based HPLC-MS/MS analysis; format: ADME; details: in vivo
[24] = as §1; format: ADME, microsome; details: Sprague-Dawley, liver microsomes, read-out: Stability
[25] = Antiproliferative activity against human HepG2/DOX cells after 48 hrs by MTT assay; format: functional, cell-based

| Compound | IC50 [1] | IC50 [2] | IC50 [3] | IC50 [4] | IC50 [5] | other results |
| --- | --- | --- | --- | --- | --- | --- |
| COc1ccc(C(=O)c2cc(OC)c(OC)c([Se]C)c2)cc1Cl | 865 nM | 1530 nM | 253 nM | 189 nM | 949 nM |  |
| C=C(c1ccc(OC)c(OP(=O)(O)O)c1)c1cc(OC)c(OC)c(OC)c1 |  |  |  |  |  | inhibition in vivo at 30 mg/kg [6]: 52.2% |
| C=C(c1ccc(OC)c(Br)c1)c1cc(OC)c(OC)c([Se]C)c1 | 667 nM | 691 nM | 343 nM | 171 nM | 236 nM |  |
| COc1cc(C(=O)c2ccc(OC)c(OC)c2OC)cc([Se]C)c1OC | 4260 nM | 4340 nM | 874 nM | 523 nM | 2750 nM |  |
| COc1ccc(/C=C\c2cc(OC)c(OC)c(OC)c2)cc1OP(=O)(O)O [FOSBRETABULIN DISODIUM] |  |  |  |  |  | inhibition in vivo at 30 mg/kg [6]: 47.6% |
| COc1ccc(C(=O)c2cc(OC)c(OC)c([Se]C)c2)cc1 | 57 nM | 85 nM | 47 nM | 145 nM | 31 nM |  |
| C=C(c1cc(OC)c(OC)c(OC)c1)c1cc(OC)c(OC)c([Se]C)c1 | 3320 nM | 1350 nM | 3520 nM | 3140 nM | 473 nM |  |
| COc1ccc(/C=C\c2cc(OC)c(OC)c(OC)c2)cc1O [COMBRETASTATIN A4] |  |  |  |  |  | remaining at 0.5 h [7]: 67.2%; remaining at 1.5 h [8]: 22.5%; Stability [9]: Nd(Unstable); remaining at 1 h [10]: 26.4%; remaining at 2 h [11]: 19.9% |
| COc1ccc(C(=O)c2cc(OC)c(OC)c([Se]C)c2)cc1F | 34 nM | 47 nM | 59 nM | 57 nM | 33 nM |  |
| COc1cc(C(=O)c2cc(OC)c(OC)c([Se]C)c2)cc(OC)c1OC | 741 nM | 288 nM | 235 nM | 921 nM | 172 nM |  |
| C=C(c1ccc(OC)c(OP(=O)([O-])[O-])c1)c1cc(OC)c(OC)c([Se]C)c1.[Na+].[Na+] |  |  |  |  |  | Activity [12]: Non-Toxic; inhibition in vivo at 30 mg/kg [6]: 72.9% |
| COc1ccc(C(=O)c2cc(OC)c(OC)c([Se]C)c2)cc1C | 997 nM | 2300 nM | 5280 nM | 3150 nM | 1730 nM |  |
| C=C(c1ccc(OC)c(OC)c1)c1cc(OC)c(OC)c([Se]C)c1 | 344 nM | 473 nM | 216 nM | 299 nM | 265 nM |  |
| C=C(c1ccc([Se]C)cc1)c1cc(OC)c(OC)c(OC)c1 | 178 nM | 386 nM | 216 nM | 279 nM | 97 nM |  |
| C=C(c1cc(OC)c(OC)c([Se]C)c1)c1ccc(OC)c(OC)c1OC | 3820 nM | 6300 nM | 1040 nM | 128 nM | 1380 nM |  |
| COc1ccc(C(=O)c2cc(OC)c(OC)c([Se]C)c2)cc1OC | 1020 nM | 1090 nM | 306 nM | 766 nM | 285 nM |  |
| C=C(c1ccc(OC)c(O)c1)c1cc(OC)c(OC)c(OC)c1 | 8.5 nM | 18.3 nM | 3.8 nM | 3.7 nM | 3.5 nM | IC50 [13]: 6 nM; remaining at 0.5 h [7]: 85.7%; Ratio IC50 [14]: 19.7; IC50 [15]: 24 nM; IC50 [16]: 48 nM; Ratio IC50 [17]: 2.1; IC50 [18]: 19.8 nM; IC50 [19]: 26 nM; IC50 [20]: 2760 nM; IC50 [21]: 69.1 nM; remaining at 1.5 h [8]: 67.3%; Activity [22]: Active; half-life [23]: 102 min; remaining at 2.5 h [24]: 34.3%; remaining at 1 h [10]: 77.1%; IC50 [25]: 38.6 nM; remaining at 2 h [11]: 49.8% |
| COc1cc(C(=O)c2ccc([Se]C)cc2)cc(OC)c1OC | 65 nM | 77 nM | 66 nM | 296 nM | 69 nM |  |
| COc1ccc(C(=O)c2cc(OC)c(OC)c([Se]C)c2)cc1O | 24 nM | 31 nM | 79 nM | 53 nM | 55 nM |  |
| C=C(c1ccc(OC)c(C)c1)c1cc(OC)c(OC)c([Se]C)c1 | 599 nM | 607 nM | 245 nM | 496 nM | 141 nM |  |
| C=C(c1ccc(OC)c(F)c1)c1cc(OC)c(OC)c([Se]C)c1 | 24 nM | 87 nM | 82 nM | 33 nM | 29 nM |  |
| C=C(c1ccc(OC)cc1)c1cc(OC)c(OC)c([Se]C)c1 | 96 nM | 126 nM | 107 nM | 91 nM | 72 nM |  |
| COc1ccc(C(=O)c2cc(OC)c(OC)c([Se]C)c2)cc1Br | 435 nM | 655 nM | 169 nM | 1750 nM | 368 nM |  |
| COc1ccc(C(=O)c2cc(OC)c(OC)c(OC)c2)cc1O [PHENSTATIN] | 62 nM | 108 nM | 72 nM | 122 nM | 179 nM |  |
| C=C(c1ccc(OC)c(Cl)c1)c1cc(OC)c(OC)c([Se]C)c1 | 83 nM | 298 nM | 451 nM | 254 nM | 196 nM |  |
